Source: US4683240A, “Pharmaceutical composition containing an imidazolidinetrione derivative or pharmaceutically acceptable salt thereof” (Nippon Zoki Pharmaceutical Co., Ltd., priority 1985, dated 1987)
Where two headings read alike, the source gives them in different places.

What was measured:
Type in all cases: in vivo, rat (Wistar-strain)
Serum Phospholipid = test: Hypolipidemic effect: serum phospholipid; conditions: 2 h
Procedure: (§1) The test drugs suspended in 0.5% aqueous C.M.C. solution were orally administered to groups of 8 Wistar-strain male rats (weighing about 185 g) which were fasted for 18 to 20 hours. 2 hours later, the serum was obtained in the same manner described in (2). Serum triglyceride was measured according to the GPO-p-chlorophenol colorimetric determination [Richard W. Spayd et al., Clinical Chemistry, 24, 1343 (1978)], serum free fatty acid was measured according to the Acyl CoA Synthetase-Acyl CoA Oxidase method [Shimizu S. et al., Biochem. Biophys. Res. Commun., 91, 108 (1979)], free fatty acid was measured according to the enzymatic method [Charles C. Allain et al., Clin. Chem., 20, No. 4, 470 (1974)] and total cholesterol was measured according to the enzymatic method [Takayama M. et al., Clinica Chimica Acta, 79, 93 (1977)]. Asterisks indicate significant differences (*: p<0.05, **: p<00.01, ***: p<0.001) from the control.

Total Serum Cholesterol = test: Hypolipidemic effect: total serum cholesterol; conditions: 2 h
Procedure: as §1

Blood Glucose = test: Hypoglycemic effect in glucose-loaded fasted rats (blood glucose); conditions: for inhibition in vivo at 100 mg/kg: Rattus norvegicus, vs control, read-out: Blood Glucose Decrease; for inhibition in vivo at 100 mg/kg / Blood Glucose Level: 100 mg/kg oral, 2 h
Procedure: Groups of 7 Wistar-strain male rats (weighing about 200 g) which were fasted for 18 hours were used for measurement of hypoglycemic effect according to the modified method by Dulin et al. [Dulin, W. L. et al., Proc. Soc. Expl. Med., 107, 245 (1961)]. That is, 0.5 ml/100 g of 20% aqueous solution of glucose was subcutaneously administered to the backs of rats to prevent a decrease in blood glucose level because of the fasting. Immediately thereafter the test drug suspended in 0.5% aqueous C.M.C. solution was orally given, and 2 hours later, the animals underwent laparotomy under pentobarbital anesthesia, then blood was drawn from the vena cava. The obtained blood sample was allowed to stand for 30 minutes to complete the coagulation and was centrifuged to obtain the serum. Blood sugar level was measured according to the mutalotase GOD method [Trinder, Ann. Clin. Biochem., 6, 24 […]]. Asterisks indicate significant differences (*: p<0.05, **: p<0.01, ***: p<0.001) from the control.

Serum Free Fatty Acid = test: Hypolipidemic effect: serum free fatty acid; conditions: 2 h
Procedure: as §1

Serum Triglyceride = test: Hypolipidemic effect: serum triglyceride; conditions: 2 h
Procedure: as §1

[1] = 100 mg/kg oral, control 79 ± 2 (compounds 2-12), 72 ± 2 (compounds 15-29)
[2] = Rattus norvegicus, 100 mg/kg oral, vs control, read-out: Serum Phospholipid Decrease
[3] = 100 mg/kg oral, control 44 ± 2 (compounds 4-12), 41 ± 1 (compounds 15-29)
[4] = Rattus norvegicus, 100 mg/kg oral, vs control, read-out: Total Serum Cholesterol Decrease
[5] = 100 mg/kg oral, control 0.53 ± 0.03 (compounds 2-12), 0.52 ± 0.03 (compounds 15-24)
[6] = Rattus norvegicus, 100 mg/kg oral, vs control, read-out: Serum Free Fatty Acid Decrease
[7] = 100 mg/kg oral, control 65 ± 5 (compounds 2-12), 57 ± 4 (compounds 15-29)
[8] = Rattus norvegicus, 100 mg/kg oral, vs control, read-out: Serum Triglyceride Decrease

Structure (SMILES)	Serum Phospholipid Level (Serum Phospholipid; [1]) [mg/dL]	inhibition in vivo at 100 mg/kg (Serum Phospholipid; [2]) [%]	Total Serum Cholesterol Level (Total Serum Cholesterol; [3]) [mg/dL]	inhibition in vivo at 100 mg/kg (Total Serum Cholesterol; [4]) [%]	inhibition in vivo at 100 mg/kg (Blood Glucose; Table 3) [%]	Blood Glucose Level (Blood Glucose; Table 3, control 133 ± 4) [mg/dL]	Serum Free Fatty Acid Level (Serum Free Fatty Acid; [5]) [mEq/l]	inhibition in vivo at 100 mg/kg (Serum Free Fatty Acid; [6]) [%]	Serum Triglyceride Level (Serum Triglyceride; [7]) [mg/dL]	inhibition in vivo at 100 mg/kg (Serum Triglyceride; [8]) [%]	inhibition in vivo at 100 mg/kg (Blood Glucose; Table 2) [%]	Blood Glucose Level (Blood Glucose; Table 2, control 133 ± 6) [mg/dL]	further results
O=C1NC(=O)N(Cc2ccc(F)cc2)C1=O [compound 18, 1-(4-fluorobenzyl)imidazolidinetrione]	56 ± 1	22.2	34 ± 1	17.1	20.3	106 ± 3	0.42 ± 0.02	19.2	30 ± 1	47.4	–	–	–
O=C1NC(=O)N(Cc2ccc(Br)cc2)C1=O [compound 21, 1-(4-bromobenzyl)imidazolidinetrione]	57 ± 1	20.8	36 ± 1	12.2	–	–	0.44 ± 0.02	15.2	35 ± 2	38.6	–	–	–
CCCCCCCCCCN1C(=O)NC(=O)C1=O [compound 9, 1-decylimidazolidinetrione]	–	–	–	–	–	–	–	–	–	–	18	109 ± 4	–
CN1C(=O)C(=O)N(C)C1=O [compound 12, 1,3-dimethylimidazolidinetrione]	61 ± 2	22.8	39 ± 1	11.4	–	–	0.37 ± 0.03	30.2	35 ± 3	46.2	15	115 ± 4	–
O=C1NC(=O)N(C2CCCCC2)C1=O [compound 11, 1-cyclohexylimidazolidinetrione]	60 ± 2	24.1	39 ± 1	11.4	–	–	0.34 ± 0.01	35.8	27 ± 1	58.5	24.1	101 ± 2	–
CCN1C(=O)C(=O)N(C2CCCC2)C1=O [compound 13, 1-cyclopentyl-3-ethylimidazolidinetrione]	–	–	–	–	–	–	–	–	–	–	14.7	116 ± 5	–
O=C1NC(=O)N(Cc2ccc([N+](=O)[O-])cc2)C1=O [compound 23, 1-(4-nitrobenzyl)imidazolidinetrione]	65 ± 2	9.7	–	–	12	117 ± 3	–	–	38 ± 2	33.3	–	–	–
O=C1NC(=O)N(Cc2cccc(F)c2)C1=O [compound 17, 1-(3-fluorobenzyl)imidazolidinetrione]	58 ± 1	19.4	37 ± 1	9.8	13.5	115 ± 2	–	–	30 ± 1	47.4	–	–	–
CC(C)(C)N1C(=O)NC(=O)C1=O [compound 6, 1-tert-butylimidazolidinetrione]	–	–	–	–	–	–	–	–	–	–	18	109 ± 4	–
CCCCN1C(=O)NC(=O)C1=O [compound 4, 1-butylimidazolidinetrione]	58 ± 1	26.6	39 ± 1	11.4	–	–	0.27 ± 0.02	49.1	23 ± 1	64.6	33.8	88 ± 7	–
O=C1NC(=O)N(C2CCCC2)C1=O [compound 10, 1-cyclopentylimidazolidinetrione]	–	–	–	–	–	–	–	–	–	–	24.8	100 ± 4	–
Cc1ccc(CN2C(=O)NC(=O)C2=O)cc1 [compound 26, 1-(4-methylbenzyl)imidazolidinetrione]	58 ± 1	19.4	37 ± 1	9.8	9.8	120 ± 2	–	–	37 ± 1	35.1	–	–	–
COc1ccc(CN2C(=O)NC(=O)C2=O)cc1 [compound 29, 1-(4-methoxybenzyl)imidazolidinetrione]	58 ± 1	19.4	36 ± 1	12.2	9.8	120 ± 2	–	–	43 ± 3	24.6	–	–	–
CC(C)CN1C(=O)NC(=O)C1=O [compound 5, 1-iso-butylimidazolidinetrione]	–	–	–	–	–	–	–	–	–	–	39.1	81 ± 1	–
O=C1NC(=O)N(Cc2ccccc2F)C1=O [compound 16, 1-(2-fluorobenzyl)imidazolidinetrione]	54 ± 1	25	33 ± 2	19.5	11.3	118 ± 4	–	–	30 ± 1	47.4	–	–	–
Cc1cccc(CN2C(=O)NC(=O)C2=O)c1 [compound 25, 1-(3-methylbenzyl)imidazolidinetrione]	57 ± 2	20.8	36 ± 1	12.2	13.5	115 ± 3	–	–	33 ± 2	42.1	–	–	–
CCCCNC(=O)NS(=O)(=O)c1ccc(C)cc1 [Tolubutamide, reference compound]	–	–	–	–	–	–	–	–	–	–	63.9	48 ± 1	Serum Phospholipid Level (Serum Phospholipid; 50 mg/kg oral, control 79 ± 2): 75 ± 2 mg/dL; inhibition in vivo at 50 mg/kg (Serum Phospholipid; Rattus norvegicus, 50 mg/kg oral, vs control, read-out: Serum Phospholipid Decrease): 5.1%; Total Serum Cholesterol Level (Total Serum Cholesterol; 50 mg/kg oral, control 44 ± 2): 46 ± 1 mg/dL; inhibition in vivo at 50 mg/kg (Total Serum Cholesterol; Rattus norvegicus, 50 mg/kg oral, vs control, read-out: Total Serum Cholesterol Decrease): -4.5%; Blood sugar effect (in words) (Blood Glucose; oral, rats): excessive hypoglycemia; Serum Free Fatty Acid Level (Serum Free Fatty Acid; 50 mg/kg oral, control 0.53 ± 0.03): 0.44 ± 0.02 mEq/l; inhibition in vivo at 50 mg/kg (Serum Free Fatty Acid; Rattus norvegicus, 50 mg/kg oral, vs control, read-out: Serum Free Fatty Acid Decrease): 15.7%; Serum Triglyceride Level (Serum Triglyceride; 50 mg/kg oral, control 65 ± 5): 53 ± 4 mg/dL; inhibition in vivo at 50 mg/kg (Serum Triglyceride; Rattus norvegicus, 50 mg/kg oral, vs control, read-out: Serum Triglyceride Decrease): 18.5%
CCCCCCN1C(=O)NC(=O)C1=O [compound 7, 1-hexylimidazolidinetrione]	66 ± 2	16.5	–	–	–	–	–	–	38 ± 3	41.5	23.3	102 ± 6	–
Cc1ccccc1CN1C(=O)NC(=O)C1=O [compound 24, 1-(2-methylbenzyl)imidazolidinetrione]	56 ± 1	22.2	36 ± 1	12.2	12.8	116 ± 3	0.45 ± 0.01	13.5	30 ± 1	47.4	–	–	–
